ChEMBL document CHEMBL1130946, “Highly efficient and versatile synthesis of libraries of constrained beta-strand mimetics” (Bioorg Med Chem Lett, 1998)
pKi: −log10 of the molar value.

Molecular target: Tryptase (Homo sapiens, UniProt Q9BZJ3+Q15661+Q9NRR2)
Test: Compound was evaluated for its binding affinity to the tryptase
Format: protein assay

Ki [nM] | SMILES
5.9 | CC1=CC(C(=O)NC(CCCCN)C(=O)C(=O)NCCc2ccc(C(N)=O)cc2)n2c(=O)n(C(c3ccccc3)c3ccccc3)c(=O)n2C1 (stereo not drawn)

Molecular target: Serine protease 1 (Homo sapiens, UniProt P07477)
Test: Compound was evaluated for its binding affinity to the trypsin enzyme

Sequence of Serine protease 1 (P07477 whole entry): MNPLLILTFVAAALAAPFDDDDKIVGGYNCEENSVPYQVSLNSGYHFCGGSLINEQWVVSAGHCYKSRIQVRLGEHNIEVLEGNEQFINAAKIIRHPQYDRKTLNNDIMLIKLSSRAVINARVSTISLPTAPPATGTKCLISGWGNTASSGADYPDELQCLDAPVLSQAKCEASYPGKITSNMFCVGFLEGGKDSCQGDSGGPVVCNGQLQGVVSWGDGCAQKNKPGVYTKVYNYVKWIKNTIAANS

pKi | SMILES
9.37 | CC(C)CCn1c(=O)n2n(c1=O)C(C(=O)NC(CCCCN)C(=O)C(=O)NCCc1ccc(C(N)=O)cc1)C=CC2CC(C)C (stereo not drawn)
9.55 | COc1ccc(-n2c(=O)n3n(c2=O)C(C(=O)NC(CCCCN)C(=O)C(=O)NCCc2ccc(C(N)=O)cc2)C=CC3CC(C)C)cc1 (stereo not drawn)

Molecular target: Kallikrein-1 (Homo sapiens, UniProt P06870)
Test: Compound was evaluated for its inhibitory activity against Kallikrein

Sequence of Kallikrein-1 (P06870 whole entry): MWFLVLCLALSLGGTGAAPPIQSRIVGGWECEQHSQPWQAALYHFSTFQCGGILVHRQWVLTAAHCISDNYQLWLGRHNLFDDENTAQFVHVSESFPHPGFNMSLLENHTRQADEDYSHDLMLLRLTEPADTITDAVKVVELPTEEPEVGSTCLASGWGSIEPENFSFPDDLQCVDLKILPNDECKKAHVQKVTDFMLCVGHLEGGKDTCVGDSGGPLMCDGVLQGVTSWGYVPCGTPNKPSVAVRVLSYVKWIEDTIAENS

pKi | SMILES
7.68 | COC(=O)C1C(CCc2ccccc2)=CC(C(=O)NC(CCCCN)C(=O)C(=O)NCCc2ccc(C(N)=O)cc2)n2c(=O)n(Cc3cc(F)ccc3F)c(=O)n21 (stereo not drawn)
7.51 | CC1(C)C2CC3C(=CC(C(=O)NC(CCCCN)C(=O)C(=O)NCCc4ccc(C(N)=O)cc4)n4c(=O)n(Cc5ccc(Cl)c(Cl)c5)c(=O)n43)C1C2 (stereo not drawn)

Molecular target: Prothrombin (Homo sapiens, UniProt P00734)
Test: Compound was evaluated for its binding affinity to the thrombin

pKi | SMILES
8.72 | CC1=CC(C(=O)NC(CCCCN)C(=O)C(=O)NCCc2ccc(C(N)=O)cc2)N2C(=O)C(Cc3ccccc3)(Cc3ccccc3)C(=O)N2C1 (stereo not drawn)
9.52 | NCCCCC(NC(=O)C1C=CCn2c(=O)n(CC(c3ccccc3)c3ccccc3)c(=O)n21)C(=O)C(=O)NCCc1ccc(C(N)=O)cc1 (stereo not drawn)
9.70 | CCCCC1(CCCC)C(=O)N2CC(C)=CC(C(=O)NC(CCCCN)C(=O)C(=O)NCCc3ccc(C(N)=O)cc3)N2C1=O (stereo not drawn)
8.29 | CC1=CC(C(=O)NC(CCCCN)C(=O)C(=O)NCCc2ccc(C(N)=O)cc2)N2C(=O)C(CC(C)C)(CC(C)C)C(=O)N2C1 (stereo not drawn)
10.46 | CC1=CC(C(=O)NC(CCCCN)C(=O)C(=O)NCCc2ccc(C(N)=O)cc2)n2c(=O)n(CC(c3ccccc3)c3ccccc3)c(=O)n2C1 (stereo not drawn)
8.80 | CC1=CC(C(=O)NC(CCCCN)C(=O)C(=O)NCc2ccc(C(N)=O)cc2)N2C(=O)C(N)(Cc3ccccc3)C(=O)N2C1 (stereo not drawn)

SMILES | pKi
C=CCC1(CC=C)C(=O)N2CC(C)=CC(C(=O)NC(CCCCN)C(=O)C(=O)NCCc3ccc(C(N)=O)cc3)N2C1=O (stereo not drawn) | 7.74
CCC1(N)C(=O)N2C(Cc3ccccc3)C=CC(C(=O)NC(CCCCN)C(=O)C(N)=O)N2C1=O (stereo not drawn) | 8.36
